Assay results reported in paper PMC7377239, “Cardiovascular Effects of Polychlorinated Biphenyls and Their Major Metabolites” (Environmental Health Perspectives, 2020).
Where two headings read alike, the source gives them in different places.

Test system: iCell cardiomyocytes (human iPSC-derived cardiomyocytes)
Assay: Intracellular Ca2+ flux / beating parameters in iCell cardiomyocytes (FLIPR tetra), 90 min or 24 h
Type: cell-based
Conditions: Homo sapiens, Cardiomyocyte, 0.00 µM = 100.00; for activity at 0.1 µM: 0.10 µM
Procedure: Details on cardiomyocyte cell culture are described in detail elsewhere ([Grimm et al. 2015b]; [Sirenko et al. 2013a]). Briefly, tissue-culture treated 384 well plates were gelatinized with 25μL per well of 0.1% (w/v) gelatin in water for 2 h at 37°C and 5% CO2 . Individual vials of cells were thawed for 4 min in a water bath maintained at 37°C. Thawed cells were resuspended in 10ml plating medium containing 1:500 (vol/vol) penicillin/streptomycin solution at room temperature (RT). Live cell counts for each cell suspension were determined by trypan blue staining and cells were further diluted to provide final cell densities of 2×10^5 viable cells/ml. Thus, 5,000 cells suspended in 25μL media were transferred per well after the gelatin solution had been discarded. Cell culture plates were rested for 30 min at RT before they were incubated for 48 h at 37°C and 5% CO2 . Then, a media exchange with 30μL of fresh maintenance medium containing 1:500 (vol/vol) penicillin/streptomycin solution was performed, and cell media were subsequently changed every 48 h for 12 d. On the experiment day, the medium was completely exchanged with either 25μL (for Ca^2+ flux assay) or 40μL (for imaging) of fresh medium.
Responses of iCell®-cardiomyocytes to drugs and chemicals were evaluated using intracellular Ca^2+ flux measurements ([Grimm et al. 2015b]; [Sirenko et al. 2013b]). For experiments, 20 mM stock solutions of PCBs and PCB metabolites were prepared in DMSO ( 200× ). Chemical working solutions ( 5× ) were prepared using cardiomyocyte maintenance medium and contained 2.5% (vol/vol) DMSO. These chemical master plates were prepared to include all chemicals in concentration–response (0.05, 0.5, 5, 50, and 500μM ). Negative controls included media-only and vehicle control (i.e., 0.5% vol/vol DMSO in cell culture media) wells. Positive assay controls were consistent with previously published reports ([Grimm et al. 2018]) and included TAB ( 50μM ) as a cytotoxic control, and isoproterenol ( 0.1–10μM ), propranolol ( 0.1–5 μM ), cisapride ( 0.01–1μM ), and doxorubicin ( 0.1–5μM ) as chemicals associated with specific effects on beating and ion flux. Each test chemical was screened in triplicate for each concentration.
Experiments started with the addition of 25μL of prewarmed 2× concentrated calcium dye reagent to sample wells containing 25μL maintenance media. Microplates were then acclimated for 2 h at 37°C. Following equilibration, cardiomyocyte sample wells were treated simultaneously by the addition of 12.5μL of prewarmed 5× chemical solution to iCell®-cardiomyocytes using the automated liquid handler in the FLIPR tetra (Molecular Devices). Treated cell cultures were incubated for either 90 min or 24 h. After the conclusion of the treatment period, the Ca^2+ flux was measured for 100 s at a frequency of 8 Hz using the integrated fluorescence plate reader in the FLIPR tetra (Molecular Devices) using an emission wavelength range of λemission=515–575 nm ( λexcitation=470–495 nm ). Additional instrument settings included exposure time per read of 0.05s, a gain of 2000, an excitation intensity of 30%, and an internal temperature of 37°C.
Ca^2+ flux data were processed in R studio (version 1.0.136, with R version 3.3.2; R Development Core Team) as described elsewhere ([Blanchette et al. 2019]; [Burnett et al. 2019]). Calculated quantitative metrics included the means and coefficients of variation (CV) of the peak height, which can be indicative of cytotoxicity, inhibition, or stimulation of beating. Means of peak frequency, an indicator of positive or negative […], and CV of peak spacing, an indicator of irregular beating, were also derived from Ca^2+ flux traces. Finally, the mean ratio of the decay over rise time was calculated. Increases in the decay/rise time ratio are reflective of delayed repolarization and are a measure for QT prolongation. […]

[1] = 1.5 h, read-out: cm.amp.avg.90min
[2] = 1.5 h, read-out: cm.amp.cv.90min
[3] = 1.5 h, read-out: cm.decay.rise.90min
[4] = 1.5 h, read-out: cm.spacing.cv.90min
[5] = 24 h, read-out: cm.amp.avg.24hrs
[6] = 24 h, read-out: cm.amp.cv.24hrs
[7] = 24 h, read-out: cm.decay.rise.24hrs
[8] = 24 h, read-out: cm.spacing.cv.24hrs

## Oc1ccc(O)c(-c2ccc(Cl)cc2)c1 [2',5'-DiOH PCB3]
[1]
  activity at 0.01 µM: 102%
  activity at 0.1 µM: 105%
  activity at 1 µM: 106%
  activity at 10 µM: 110%
  activity at 100 µM: 9.07%
[2]
  activity at 0.01 µM: 90%
  activity at 0.1 µM: 110%
  activity at 1 µM: 93.3%
  activity at 10 µM: 112%
  activity at 100 µM: 380%
1.5 h, read-out: cm.bpm.90min
  activity at 0.01 µM: 99.1%
  activity at 0.1 µM: 100%
  activity at 1 µM: 92.8%
  activity at 10 µM: 104%
  activity at 100 µM: 7.52%
[3]
  activity at 0.01 µM: 97.4%
  activity at 0.1 µM: 95.6%
  activity at 1 µM: 98.3%
  activity at 10 µM: 105%
  activity at 100 µM: 21.5%
[4]
  activity at 0.01 µM: 113%
  activity at 0.1 µM: 94%
  activity at 1 µM: 107%
  activity at 10 µM: 132%
  activity at 100 µM: 381%
[5]
  activity at 0.01 µM: 161%
  activity at 0.1 µM: 147%
  activity at 1 µM: 141%
  activity at 10 µM: 0%
  activity at 100 µM: 0%
[6]
  activity at 0.01 µM: 75.5%
  activity at 0.1 µM: 75%
  activity at 1 µM: 69.9%
  activity at 10 µM: 0%
  activity at 100 µM: 0%
24 h, read-out: cm.bpm.24hrs
  activity at 0.01 µM: 105%
  activity at 0.1 µM: 100%
  activity at 1 µM: 92.6%
  activity at 10 µM: 0%
  activity at 100 µM: 0%
[7]
  activity at 0.01 µM: 98.5%
  activity at 0.1 µM: 101%
  activity at 1 µM: 109%
  activity at 10 µM: 0%
  activity at 100 µM: 0%
[8]
  activity at 0.01 µM: 110%
  activity at 0.1 µM: 93.3%
  activity at 1 µM: 89%
  activity at 10 µM: 0%
  activity at 100 µM: 0%

## Oc1ccccc1-c1ccc(Cl)cc1 [2'-OH PCB3]
[1]
  activity at 0.01 µM: 95.7%
  activity at 0.1 µM: 105%
  activity at 1 µM: 102%
  activity at 10 µM: 0%
  activity at 100 µM: 0%
[2]
  activity at 0.01 µM: 112%
  activity at 0.1 µM: 96.5%
  activity at 1 µM: 116%
  activity at 10 µM: 0%
  activity at 100 µM: 0%
1.5 h, read-out: cm.bpm.90min
  activity at 0.01 µM: 102%
  activity at 0.1 µM: 102%
  activity at 1 µM: 104%
  activity at 10 µM: 0%
  activity at 100 µM: 0%
[3]
  activity at 0.01 µM: 98.2%
  activity at 0.1 µM: 98.7%
  activity at 1 µM: 97.6%
  activity at 10 µM: 0%
  activity at 100 µM: 0%
[4]
  activity at 0.01 µM: 143%
  activity at 0.1 µM: 110%
  activity at 1 µM: 106%
  activity at 10 µM: 0%
  activity at 100 µM: 0%
[5]
  activity at 0.01 µM: 112%
  activity at 0.1 µM: 115%
  activity at 1 µM: 124%
  activity at 10 µM: 104%
  activity at 100 µM: 0%
[6]
  activity at 0.01 µM: 138%
  activity at 0.1 µM: 126%
  activity at 1 µM: 94.2%
  activity at 10 µM: 140%
  activity at 100 µM: 0%
24 h, read-out: cm.bpm.24hrs
  activity at 0.01 µM: 118%
  activity at 0.1 µM: 116%
  activity at 1 µM: 95.5%
  activity at 10 µM: 121%
  activity at 100 µM: 0%
[7]
  activity at 0.01 µM: 82.1%
  activity at 0.1 µM: 92.5%
  activity at 1 µM: 112%
  activity at 10 µM: 82.7%
  activity at 100 µM: 0%
[8]
  activity at 0.01 µM: 120%
  activity at 0.1 µM: 111%
  activity at 1 µM: 106%
  activity at 10 µM: 111%
  activity at 100 µM: 0%
